Data reported in patent US10857105B2, “Compounds and compositions for intracellular delivery of therapeutic agents” (ModernaTX, Inc., priority 2017, dated 2020).

Assays:
[1] = Particle size and polydispersity index of nanoparticle compositions (Zetasizer Nano ZS); type: physicochemical
Procedure: A Zetasizer Nano ZS (Malvern Instruments Ltd, Malvern, Worcestershire, UK) can be used to determine the particle size, the polydispersity index (PDI) and the zeta potential of the nanoparticle compositions in 1×PBS in determining particle size and 15 mM PBS in determining zeta potential.
(§1) Initial studies were performed to compare the delivery efficiency of nanoparticle compositions including various compounds according to Formula (I), (IA), (IB), (II), (IIa), (IIb), (IIc), (IId), (IIe), (IIf), (IIg), or (III). The cationic lipid MC3 is a current standard in the art. Accordingly, the standard MC3 formulation including about 50 mol % MC3, about 10 mol % DSPC, about 38.5 mol % cholesterol, and about 1.5 mol % PEG-DMG was used as a basis for this study. Nanoparticle compositions including DSPC as a phospholipid, cholesterol as a structural lipid, PEG-DMG as a PEG lipid, an RNA, and a compound according to Formula (I), (IA), (IB), (II), (IIa), (IIb), (IIc), (IId), (IIe), (IIf), (IIg), or (III) selected from Compounds 1-159, 168-170, and 173-175 were prepared according to or via methods similar to those described in Examples 1 and 2. The ratios of the lipids were 50:10:38.5:1.5 mol % for the lipid according to Formula (I), (IA), (IB), (II), (IIa), (IIb), (IIc), (IId), (IIe), (IIf), (IIg), or (III):DSPC:cholesterol:PEG-DMG. The RNA used was an mRNA encoding luciferase (Luc) or hEPO, wherein each uridine was replaced N1-methyl pseudouridine. Tables 1A-1E summarize the content and characteristics of the formulations.

[2] = system: luciferase (Luc) mRNA; experiment: Luciferase expression (whole body bioluminescence) after intravenous administration to mice; type: in vivo
Procedure: In order to monitor how effectively various nanoparticle compositions deliver therapeutic and/or prophylactics to targeted cells, different nanparticle compositions including a particular therapeutic and/or prophylactic (for example, a modified or naturally occurring RNA such as an mRNA) are prepared and administered to rodent populations. Mice are intravenously, intramuscularly, intraarterially, or intratumorally administered a single dose including a nanoparticle composition with a formulation such as those provided in Example 3. In some instances, mice may be made to inhale doses. Dose sizes may range from 0.001 mg/kg to 10 mg/kg, where 10 mg/kg describes a dose including 10 mg of a therapeutic and/or, prophylactic in a nanoparticle composition for each 1 kg of body mass of the mouse. A control composition including PBS may also be employed.
Upon administration of nanoparticle compositions to mice, dose delivery profiles, dose responses, and toxicity of particular formulations and doses thereof can be measured by enzyme-linked immunosorbent assays (ELISA), bioluminescent imaging, or other methods. For nanoparticle compositions including mRNA, time courses of protein expression can also be evaluated. Samples collected from the rodents for evaluation may include blood, sera, and tissue (for example, muscle tissue from the site of an intramuscular injection and internal tissue); sample collection may involve sacrifice of the animals.
The efficacy of the nanoparticle compositions presented in Table 1A was evaluated with a bioluminescence study. Formulations were administered intravenously to mice (n=6) at a dosage of 0.5 mg/kg (mpk) and bioluminescence measured at 3, 6, and 24 hour time points. The standard MC3 formulation and, in some instances, a control (e.g., a PBS control) were evaluated for comparison. […] In general, flux decreased as time progressed to less than 10% of the initial flux.
The total flux (measured by area under the curve, AUC) induced by administration of a formulation including a given lipid relative to that induced by administration of a formulation including MC3 was also measured for several lipids.

[3] = system: modified luciferase; experiment: Luciferase expression in liver, lung, spleen and femur 6 hours after intravenous administration to mice; type: in vivo; details: 6 hours after intravenous 0.5 mpk, mice
Procedure: The efficacy of the nanoparticle compositions presented in Table 1A was further evaluated by measuring the expression of modified luciferase in the liver, lung, spleen, and femur upon administration of a given composition. Formulations were administered intravenously to mice (n=3) at a dosage of 0.5 mpk and bioluminescence measured after 6 hours. The standard MC3 formulation and a PBS control were also tested. […] Flux in the liver was lowest for compositions including Compounds 58, 59, 137, and 141. Flux in the spleen was highest for compositions including Compounds 4, 7, 33, 34, 48, 53, 108, 129, 130, and 148, and lowest for compositions including Compounds 9, 59, 124, and 141.

[4] = Encapsulation efficiency of RNA in nanoparticle compositions (RIBOGREEN assay); type: physicochemical; details: Table 1A; lipid:DSPC:cholesterol:PEG-DMG 50:10:38.5:1.5 mol %
Procedure: For nanoparticle compositions including an RNA, a QUANT-IT™ RIBOGREEN® RNA assay (Invitrogen Corporation Carlsbad, Calif.) can be used to evaluate the encapsulation of an RNA by the nanoparticle composition. The samples are diluted to a concentration of approximately 5 μg/mL, in a TE buffer solution (10 mM Tris-HCl, 1 mM EDTA, pH 7.5). 50 μL of the diluted samples are transferred to a polystyrene 96 well plate and either 50 μL of TE buffer or 50 μL of a 2% Triton X-100 solution is added to the wells. The plate is incubated at a temperature of 37° C. for 15 minutes. The RIBOGREEN® reagent is diluted 1:100 in TE buffer, and 100 μL of this solution is added to each well. The fluorescence intensity can be measured using a fluorescence plate reader (Wallac Victor 1420 Multilabel Counter; Perkin Elmer, Waltham, Mass.) at an excitation wavelength of, for example, about 480 nm and an emission wavelength of, for example, about 520 nm. The fluorescence values of the reagent blank are subtracted from that of each of the samples and the percentage of free RNA is determined by dividing the fluorescence intensity of the intact sample (without addition of Triton X-100) by the fluorescence value of the disrupted sample (caused by the addition of Triton X-100).
as §1

[5] = Table 1A, lipid:DSPC:cholesterol:PEG-DMG 50:10:38.5:1.5 mol %
[6] = intravenous administration (Table 3D)

Size [1, 5] [nm] | EE [4] [%] | Size ([1]; Table 1C, compositions for subcutaneous administration) [nm] | SMILES | AUC ([2]; i.v. administration (Table 3C)) [h*p/s] | Total Flux, Liver [3] | Total Flux, Lung [3] | Total Flux, Spleen [3] | Novel lipid/MC3 ratio, i.v. ([2]; Table 3G, intravenous, luciferase, 6 hr. timepoint, relative to MC3) | Novel lipid/MC3 expression ratio, i.v. ([2]; intravenous, luciferase, 6 hr. time point, relative to MC3 formulation) | AUC [2, 6] [p/s*h]
76.7 |  |  | CCCCCCCCC(CCCCCCCC)OC(=O)CCCCCCCN(CCO)CCCCCCCC(=O)OC1CCC(CCCCC)CC1 (stereo not drawn) [Compound 66, Heptadecan-9-yl 8-((2-hydroxyethyl)(8-oxo-8-((4-pentylcyclohexyl)oxy)octyl)amino)octanoate] | 6.76E+11 | 5.01E+09 | 4.20E+06 | 2.00E+07 |  |  | 
59.2 | 95.7 |  | CCCCCCCCC(CCCCCCCC)OC(=O)CCCCCCCN(CCO)CCCC(=O)OC(CCCCCC)CCCCCCCC (stereo not drawn) [Compound 73, Heptadecan-9-yl 8-((2-hydroxyethyl)(4-oxo-4-(pentadecan-7-yloxy)butyl)amino)octanoate] |  | 7.93E+08 | 6.17E+06 | 9.45E+06 |  |  | 
93.7 | 89.1 |  | CCCCCCCCCOC(=O)CCCCCCCN(CCO)CCCCCCCC(=O)OC1CCC(CCCCC)CC1 (stereo not drawn) [Compound 79, Nonyl 8-((2-hydroxyethyl)(8-oxo-8-((4-pentylcyclohexyl)oxy)octyl)amino)octanoate] |  | 3.15E+06 | 6.13E+04 | 6.45E+05 |  |  | 
118 | 90.7 |  | CCCCCCCCCOC(=O)CCCCCCCN(CCO)CCCCCCCC(=O)OC1CCC(C2CCCCC2)CC1 (stereo not drawn) [Compound 80, [1,1′-Bi(cyclohexan)]-4-yl 8-((2-hydroxyethyl)(8-(nonyloxy)-8-oxooctyl)amino)octanoate] |  | 1.09E+07 | 8.97E+04 | 4.71E+06 |  |  | 
99.2 | 95.4 |  | CCCCCCCCCOC(=O)CCCCCCCN(CCO)CCCCCCCC(=O)OC1CCCCCCCCCCCCCC1 [Compound 81, Cyclopentadecyl 8-((2-hydroxyethyl)(8-(nonyloxy)-8-oxooctyl)amino)octanoate] |  | 2.74E+08 | 6.23E+06 | 4.49E+07 |  |  | 
91.7 |  |  | CCCCCCCCCOC(=O)CCCCCCCN(CCCCCCCC(=O)OC(CCCCCCCC)CCCCCCCC)CCN1CCN(C)CC1 [Compound 101, Heptadecan-9-yl 8-((2-(4-methylpiperazin-1-yl)ethyl)(8-(nonyloxy)-8-oxooctyl)amino)octanoate] | 1.8E+09 | 1.27E+07 | 1.77E+05 | 5.60E+06 |  |  | 
86.8 |  | 83.9 | CCCCCCCCCOC(=O)CCCCCCCN(CCCCCCCC(=O)OC(CCCCCCCC)CCCCCCCC)CCCNC(=S)NC [Compound 113, Heptadecan-9-yl 8-((3-(3-methylthioureido)propyl)(8-(nonyloxy)-8-oxooctyl)amino)octanoate] |  | 1.11E+09 | 5.55E+06 | 5.22E+07 | 0.59 | 0.59 | 
110.4 | 89.5 |  | CCCCCCCCCOC(=O)CCCCCCCN(CCO)CCCCCCCCCOP(=O)(OCCCCCCCCC)OCCCCCCCCC [Compound 127, Nonyl 8-((9-((bis(nonyloxy)phosphoryl)oxy)nonyl)(2-hydroxyethyl)amino)octanoate] |  | 1.94E+08 | 5.26E+06 | 3.21E+08 |  |  | 
86.3 | 77.2 |  | CCCCCCCCCCCOC(=O)CCCCCN(CCO)CCCCCCCC(=O)N(CCCCCCCC)CCCCCCCC [Compound 129, Undecyl 6-((8-(dioctylamino)-8-oxooctyl)(2-hydroxyethyl)amino)hexanoate] |  | 6.65E+08 | 9.89E+06 | 5.09E+08 |  |  | 
 | 75.44 |  | CCCCCCCCCOC(=O)CCCCCCCN(CCO)CCCCCCCOP(=O)(OCCCCCCCC)OCCCCCCCC [Compound 131, Nonyl 8-((7-((bis(octyloxy)phosphoryl)oxy)heptyl)(2-hydroxyethyl)amino)octanoate] | 9.29E+10 | 3.52E+08 | 1.45E+07 | 8.32E+08 |  |  | 
62.1 |  |  | CCCCCCCCC(CCCCCCCC)OC(=O)CCCCCCCN(C)CCCCCCCCCC(=O)OCCCCCCC [Compound 149, Heptyl 10-((8-(heptadecan-9-yloxy)-8-oxooctyl)(methyl)amino)decanoate] |  | 1.11E+09 | 2.69E+06 | 2.71E+07 |  |  | 1.057E+011
62.6 |  |  | CCCCCCCCCOC(=O)CCCCCCCN(CCO)CCCCCCC/C=C\C(CCCCCCCC)CCCCCCCC [Compound 152, Nonyl (Z)-8-((2-hydroxyethyl)(10-octyloctadec-8-en-1-yl)amino)octanoate] |  | 1.43E+08 | 3.16E+05 | 6.63E+06 |  |  | 2.855E+010
83.7 |  |  | CCCCCCCCCOC(=O)CCCCCCCN(CCO)CCCCCCCCCC(CCCCCCCC)CCCCCCCC [Compound 153, Nonyl 8-((2-hydroxyethyl)(10-octyloctadecyl)amino)octanoate] |  | 1.18E+09 | 6.42E+06 | 1.42E+08 |  |  | 2.697E+011
75.9 |  |  | CCCCCCCCCOC(=O)CCCCCCCN(CCO)CCN(CCO)CCCCCCCC(=O)OC(CCCCCCCC)CCCCCCCC [Compound 159, Heptadecan-9-yl 8-((2-hydroxyethyl)(2-((2-hydroxyethyl)(8-(nonyloxy)-8-oxooctyl)amino)ethyl)amino)octanoate] |  | 1.13E+06 | 2.17E+05 | 7.24E+05 |  |  | 1.355E+008
